pIC50: −log10 of the molar value. Activity calls are given as the source filed them. No cut-off for these calls is given here.

Assay [1] has as its system HCT-116. Put plainly: Cytotoxicity against human HCT-116 cells assessed as reduction in cell viability at 10 uM incubated for 48 hrs by MTT assay relative to control. Type of assay: functional.
The test system of assay [2] is HCT-116. Put plainly: Cytotoxicity against human HCT-116 cells assessed as reduction in cell viability incubated for 48 hrs by MTT assay. In kind it is functional, cell-based. As to conditions: HCT-116, 48 h.
Assay [3] has as its system HCT-116. Put plainly: Induction of morphological changes in human HCT-116 cells at 10 uM incubated for 48 hrs by phase contrast microscopy analysis. Type of assay: functional, cell-based.
Assay [4] concerns HCT-116. Put plainly: Cytotoxicity against human HCT-116 cells assessed as cell growth inhibition at 10 uM incubated for 48 hrs by MTT assay relative to control. Type of assay: functional.

The pIC50 is the IC50 on a negative log10 scale, so that one unit is a factor of ten. For the compound `COc1cc(O)c2cc1CC/C=C\C=C\CC1=C(O)C(=O)C=C(O2)[C@H]1C1=Cc2cc(OC)c(O)c3c2[C@@H]1/C=C\CCc1ccc(O)c-3c1`, in assay [1], the Activity amounted to 97%. The pIC50 in assay [2] was 5.44.
A word on the inhibition: it is how much of the control response was suppressed. With `COc1cc2c3c(c1O)-c1cc(ccc1O)CC/C=C\[C@@H]3C([C@@H]1C3=CC(=O)[C@]14C(=O)Oc1ccc(cc14)CC/C=C\C=C\C3)=C2`, the negative-log IC50 (pIC50) in assay [2] is 5.12. Further, the result in assay [3] was Active. The inhibition at 10 µM in assay [4] came out at 73%.
Turning to `COc1cc2c3c(c1O)-c1cc(ccc1O)CC/C=C\[C@@H]3C([C@@H]1C3=CC(=O)[C@@]4(O)Oc5ccc(cc5[C@@H]14)CC/C=C\C=C\C3)=C2`, in assay [4], the inhibition at 10 µM stood at 23%.
